Counter-ions that a name gives are not always drawn.
Key:
L6-myotubes [1] = assay: Measurement of intracellular cAMP levels (alpha screen cAMP kit) in differentiated cells, compared to isoproterenol; format: cell-based; settings: 0.25 h, compound at 10 μM vs isoproterenol at 10 μM, 15 min stimulation, read-out: Biological example 2: intracellular cAMP level activity compared to that of isoproterenol
Procedure, shortened: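 Rat L6 myoblasts differentiated to myotubes over 7 days in 2% FBS, serum-starved overnight, then stimulated 15 min with agonist at 1×10^−5 M final in HBSS with 1 mM IBMX, pH 7.4. cAMP measured by AlphaScreen after ethanol extraction and lysis; activity expressed relative to isoproterenol.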

L6-myotubes [2] = assay: Glucose uptake (3H-2-deoxyglucose) in differentiated L6-myotubes, compared to isoproterenol; format: cell-based; settings: compound at 10 μM vs isoproterenol at 10 μM, read-out: Biological example 1: glucose uptake activity compared to that of isoproterenol
Procedure, shortened: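 Differentiated L6 myotubes, serum-starved overnight in 0.5% fatty-acid-free BSA, were pretreated 1 h 40 min with agonist at 1×10^−5 M final, then re-dosed in glucose-free medium for 20 min. Uptake of 50 nM 3H-2-deoxyglucose over 10 min was read by scintillation counting and compared with isoproterenol.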

Compound | Emax at 10 µM (L6-myotubes [1]) [%] | Emax at 10 µM (L6-myotubes [2]) [%]
CC(C)(C[C@H]1CCCN(S(C)(=O)=O)C1)NC[C@H](O)c1cccc(F)c1 [Example 25, (R)-1-(3-Fluorophenyl)-2-((2-methyl-1-((R)-1-(methylsulfonyl)-piperidin-3-yl)propan-2-yl)amino)ethan-1-ol hydrochloride] | < 25 | 25 to 50
CC(C)(C[C@@H]1CNC(=O)C1)NC[C@H](O)c1cccc(F)c1 [Example 72, (S)-4-(2-(((R)-2-(3-Fluorophenyl)-2-hydroxyethyl)amino)-2-methyl-propyl)pyrrolidin-2-one hydrochloride] | 50 to 75 | > 75
CC(C)(C[C@@H]1CCN(C(=O)OC(C)(C)C)C1)NC[C@H](O)c1cncc(F)c1 [Example 68, tert-Butyl (S)-3-(2-(((R)-2-(5-fluoropyridin-3-yl)-2-hydroxyethyl)-amino)-2-methylpropyl)pyrrolidine-1-carboxylate] | 25 to 50 | > 75
CC(C)(CC1CCNCC1)NC[C@H](O)c1cncc(F)c1 [Example 46, (R)-1-(5-Fluoropyridin-3-yl)-2-((2-methyl-1-(piperidin-4-yl)propan-2-yl)amino)ethan-1-ol] | < 25 | 50 to 75
CC(C)(C[C@H]1CNC(=O)C1)NC[C@H](O)c1cccc(F)c1 [Example 76, (R)-4-(2-(((R)-2-(3-Fluorophenyl)-2-hydroxyethyl)amino)-2-methyl-propyl)pyrrolidin-2-one hydrochloride] | < 25 | > 75
CC(C)(C[C@H]1CCNC1=O)NC[C@H](O)c1cccc(F)c1 [Example 73, (R)-3-(2-(((R)-2-(3-Fluorophenyl)-2-hydroxyethyl)amino)-2-methyl-propyl)pyrrolidin-2-one hydrochloride] | < 25 | > 75
CC(C)(CC1CCN(S(C)(=O)=O)CC1)NC[C@H](O)c1cccc(F)c1 [Example 31, (R)-1-(3-Fluorophenyl)-2-((2-methyl-1-(1-(methylsulfonyl)piperidin-4-yl)propan-2-yl)amino)ethan-1-ol hydrochloride] | < 25 | 50 to 75
CC(C)(C[C@H]1CCCN(C(=O)OC(C)(C)C)C1)NC[C@H](O)c1cccc(F)c1 [Example 39, tert-Butyl (R)-3-(2-(((R)-2-(3-fluorophenyl)-2-hydroxyethyl)amino)-2-methylpropyl)piperidine-1-carboxylate] | 25 to 50 | 50 to 75
CC(=O)N1CC[C@@H](CC(C)(C)NC[C@H](O)c2cccc(F)c2)C1 [Example 66, 1-((S)-3-(2-(((R)-2-(3-Fluorophenyl)-2-hydroxyethyl)amino)-2-methylpropyl)pyrrolidin-1-yl)ethan-1-one] | 25 to 50 | > 75

— US20260242335A1, “HETEROCYCLOALKYL BETA-HYDROXY ALKYL AMINES FOR USE IN THE TREATMENT OF HYPERGLYCAEMIA AND DISORDERS CHARACTERISED BY HYPERGLYCAEMIA” (ATROGI AB, priority 2023, published 2026)
